{"source": "patent US20170234881A1", "about": "“METHODS OF DIAGNOSING AND TREATING CANCER” (INSERM ( INSTITUT NATIONAL DE LA SANTÉ ET DE LA RECHERCHE …, priority 2014, published 2017)", "key": {"shHSD2 MCF7 cells [1]": {"test_system": "shHSD2 MCF7 cells", "assay": "Clonogenic assay of shHSD2 MCF7 cells", "type": "cell-based, human", "details": "OCDO 1 μM", "experimental": "(§1) FIG. 7. Knock-down of 11βHSD2 decreases cell proliferation, invasion and survival in MCF7 cells as well as tumor growth and OCDO reverses these effects. shC or shHSD2 MCF7 cells were analyzed as followed: (A) The proliferation of sh-C or shHSD2 cells treated or not with OCDO 5 μM 24 h was measured using quantification of DNA BrDU incorporation as described in FIG. 2A. (B) The proliferation of sh-C or shHSD2 cells treated or not with increasing concentration of cortisone for 24 h was measured as in (A). (C) The invasiveness of sh-C or shHSD2 cells treated or not with OCDO 5 μM for 72 h was assayed using matrigel-coated filters. (D) the formation of colony by sh-C or shHSD2 cells treated or not with OCDO 1 μM was quantified as described in FIG. 6F. […] Animals were monitored for tumor growth twice a week. […] (F) Mean (±s.e.m) of Ki67 positive cell number determined from IHC staining of shC or shHSD2 MCF7 tumor sections from (E), n=8, *P<0.05 (Student's t-test) using HistoQuant, Pannoramic Viewer (3DHistech).\nCells, MCF7-sh11bHSD2 (5×10^3), MCF7-shC (5×10^3) or TSA (3×10^3) were seeded in duplicate in […] diameter dish. […] At day 10, colonies were fixed with 3.7% PFA, stained with an aqueous crystal violet solution (0.05%) and the number of colonies was counted."}, "MCF7 tumors": {"test_system": "MCF7 tumors", "assay": "Growth of MCF7 tumors implanted s.c. into mice", "type": "in vivo", "experimental": "(§2) FIG. 2. OCDO is a tumor promoter in vitro and in vivo and its inhibition contributes to the anti-tumor effects of Tam and DDA. (A, B) Histograms representing the effect of OCDO or 17β-estrogen (E2) on MCF7 (A) and TS/A (B) cell proliferation after 24 h treatment using a colorimetric immunoassay measuring BrDU incorporation in DNA (C, D) Histogram representing the effect of OCDO on MCF7 (C) and TS/A (D) cell invasion. Data are the mean of three separate experiments (±s.e.m), *P<0.05, **P<0.01, ***P<0.001 (Student's t-test). (E, F) Mice were implanted s.c. with MCF7 (E) or TS/A (F) cells and animals (8 per group) were treated s.c. every day starting on the day of implantation with either the solvent vehicle or OCDO (16 μg/kg for MCF7 or 50 μg/kg for TS/A). Animals were monitored for tumour growth twice a week. […] (G) Mean (±s.e.m) of Ki67 positive cell number determined from IHC staining of MCF7 tumor sections from (E), n=8, *P<0.05 (Student's t-test) using HistoQuant, Pannoramic Viewer (3DHistech). […]\n(§3) Exponentially growing MCF7, ShMCF7, E0771, MDA-MB231, MDA-MB468 and TS/A cells were collected, washed twice in PBS and resuspended in PBS. […] Animals were examined daily, and body weights were measured twice per week. In all the experiments, the tumor volume was determined by direct measurement with a caliper and was calculated using the formula (width^2×length)/2. […]"}, "MDA-MB468 cells": {"test_system": "MDA-MB468 cells", "assay": "Growth of MDA-MB468 tumors implanted s.c. into mice", "type": "in vivo", "details": "human MDA-MB468 tumors, OCDO 16 μg/kg s.c.", "experimental": "as §2, §3"}, "shHSD2 MCF7 cells [2]": {"test_system": "shHSD2 MCF7 cells", "assay": "Invasiveness of shHSD2 MCF7 cells (matrigel-coated filters)", "type": "cell-based, human", "details": "OCDO 5 μM for 72 h", "experimental": "as §1\nInvasion assays were carried out using Bio-Coat migration chambers (BD Falcon) with 8 μm filters previously coated with matrigel. […] The entire membranes were mounted on glass slides, and were counted under a microscope. […]"}}, "data": [{"smiles": "CC(C)CCC[C@@H](C)[C@H]1CC[C@H]2[C@@H]3CC(=O)[C@@]4(O)C[C@@H](O)CC[C@]4(C)[C@H]3CC[C@]12C", "note": "[OCDO, 6-oxo-cholestan-3β,5α-diol]", "values": [{"measurement": "effect on the inhibition of cell survival (colony formation) mediated by 11βHSD2 knock-down", "setting": "shHSD2 MCF7 cells [1]", "result": "reversed the inhibition"}, {"measurement": "tumor growth compared with the control group", "setting": "MCF7 tumors; MCF7 tumors in immunodeficient mice, OCDO 16 μg/kg s.c. every day", "result": "significantly increased"}, {"measurement": "proliferative marker Ki67 in tumors compared with control-treated tumors", "setting": "MCF7 tumors; MCF7 tumors, IHC", "result": "increased"}, {"measurement": "tumor growth", "setting": "MDA-MB468 cells", "result": "stimulates the growth"}, {"measurement": "effect on the inhibition of cell invasion mediated by 11βHSD2 knock-down", "setting": "shHSD2 MCF7 cells [2]", "result": "reversed the inhibition of cell invasion"}]}]}
